Laboratory results: patent US20160061843A1, “BIOMARKER ASSAY” (Respiratory Clinical Trials Ltd, priority 2014, published 2016)

Columns and labels:
Type in all cases: cell-based, human
[1] = system: intracellular pSTAT3 in sputum macrophages; test: Flow cytometry of IFNγ-induced STAT3 phosphorylation in induced sputum macrophages from COPD subjects; conditions: % stimulation = stimulated MFI/non-stimulated MFI×100; IFNγ 10 ng/ml
Procedure: FIG. 10 is a bar graph showing STAT3 phosphorylation in sputum macrophages following stimulation with IFNγ in the absence or presence of increasing concentrations of a MK2 inhibitor. % stimulation was calculated as stimulated MFI/non-stimulated MFI×100.
The methods of Example 1 were repeated exactly, but this time measuring intracellular STAT3 phosphorylation using an Alexa Fluor® 647 conjugated anti-pSTAT3 antibody. In addition, a MK2 inhibitor was tested instead of a JAK inhibitor compound. Increasing concentrations of inhibitor were tested (1 μM, 10 μM and 100 μM); the same conditions otherwise applied.

[2] = system: intracellular pSTAT1 in macrophages; test: Flow cytometry of IFNγ-induced STAT1 phosphorylation in induced sputum macrophages from COPD subjects; conditions: IFNγ 10 ng/ml
From the text: Sputum samples were collected from 15 COPD subjects on three or four repeat visits (i.e., three to four samples per subject). In each case, the subject inhaled 3% (w/v) saline solution mist through the mouthpiece of an ultrasonic nebulizer for five minutes. Sputum mobilization techniques were utilized to assist with the production of a sputum sample, such as diaphragmatic breathing, huffs, percussion, vibrations and positive expiratory pressure techniques. The subject was asked to attempt to cough sputum into a sputum collection pot. If the FEV1 fell by <10% after inhalation of 3% (w/v) saline, the participant was asked to inhale the next saline concentration (4% w/v) and repeat the procedure detailed above. Again if the FEV1 fell by <10% after inhalation of 4% (w/v) saline, the participant was asked to inhale the next saline concentration (5% w/v) and repeat the procedure detailed above. The sputum collected after 15 minutes of nebulization (i.e., 3×5 minutes) was processed in the laboratory for flow cytometric analysis. Induced sputum was kept on ice and processed as soon as possible but no more than two hours from collection. Sputum plugs were selected for processing and suitably transferred into a centrifuge tube. The volume of the selected sputum sample was noted and an equal volume of DPBS added. To liquefy the sample Sputolysin® was added to a final concentration of 0.05% (w/v). The tube was placed on a plate shaker (300 rpm) for 30 minutes at room temperature to disperse the cells. After 30 minutes the sample was mixed gently with a Pasteur pipette and left to shake for a further 15 minutes. The sample was centrifuged at 1200 rpm for 10 minutes at room temperature. Sputum supernatant was collected and used to measure cytokines/chemokines of interest. […] The supernatant was removed and the cell pellet resuspended in 500 μl staining buffer ready for flow cytometric analysis. […] Levels of STAT phosphorylation in the macrophage population were determined by taking the MFI of the stimulated sample and dividing by the MFI for the non-stimulated sample.

[3] = system: intracellular pSTAT1(Y701) in macrophages; test: Flow cytometry of IFNγ-induced STAT1(Y701) phosphorylation in induced sputum macrophages from smokers; conditions: unstimulated MFI 345.5; sputum from two smokers
Procedure: FIG. 11A is a line graph showing the stimulation of STAT1(Y701) phosphorylation in macrophages and neutrophils from induced sputum by IFNγ, and inhibition of such phosphorylation after pre-incubation with increasing concentrations of a MK2 inhibitor followed by IFNγ stimulation. FIG. 11B is a bar graph showing phosphorylation of STAT1 (Y701) in macrophages in the presence and absence of the MK2 inhibitor expressed as % stimulation. % stimulation was calculated as stimulated MFI/non-stimulated MFI×100.
Induced sputum samples were obtained as described in Example 1. In this study, however, the subjects were smokers. Sputum was collected from two subjects.
Sputum samples were processed as described in Example 1.
Inducing STAT1(Y701) Phosphorylation STAT phosphorylation was induced as described in Example 1. In this study, however, the inhibitor compound was a MK2 inhibitor […].
Samples were stained as described in Example 1. However, in this study, and in order to specifically detect STAT1(Y701) phosphorylation, an Alexa Fluor® 647 conjugated anti-pSTAT1(Y701) antibody was used.
Levels of STAT1(Y701) phosphorylation in the macrophage population were determined by taking the MFI of the stimulated sample and dividing by the MFI for the non-stimulated sample. A value of greater than one (>1) indicated positive staining.

Compound | increase of intracellular pSTAT3 in sputum macrophages following incubation with IFNγ [1] [%] | MFI of intracellular pSTAT1 in macrophages after incubation with IFNγ ([2]; 20 min, 37° C., unstimulated MFI 120.7±23.92, 15 COPD subjects) | MFI of intracellular pSTAT1(Y701) in macrophages stimulated with IFNγ [3] | inhibition of STAT1 phosphorylation (in words) ([2]; inhibitor final concentration 10^−5 M) | MFI of intracellular pSTAT1 in macrophages after incubation with IFNγ+JAK inhibitor ([2]; inhibitor final concentration 10^−5 M, unstimulated MFI 120.7±23.92, stimulated MFI 196.7±33.97)
IFNγ: cytokine used as stimulator of STAT phosphorylation | 100 | 196.7±33.97 | 511 |  | 
C[C@@H]1CCN(C(=O)N2CCCC2)C[C@@H]1N(C)c1ncnc2[nH]ccc12 [JAK inhibitor, PF 956980] |  |  |  | complete inhibition | 118.3±24.44
